Data taken from patent US9426989B2 (priority 2010, dated 2016).

How the values were obtained:
Assay type in all cases: cell-based
[1] = tested on: Mammalian orthoreovirus, type 3 (strain Dearing, ATCC VR-824)
BK Polyoma virus = assay: Comparative data for inactivation with BPL: BK Polyoma virus; conditions: BPL 0.05%; 16 hours +2-8° C. (then 2 hours 37° C. for BPL hydrolysis)
[2] = tested on: Enteroviruses (Coxsackie virus, Echovirus); assay: Comparative data for inactivation with BPL: Enteroviruses; conditions: BPL 0.05%; 16 hours +2-8° C. (then 2 hours 37° C. for BPL hydrolysis)

SMILES	Reduction (of reovirus titre) [1] [log 10]	reovirus inactivation, in words [1]	LRV (BK Polyoma virus)	LRV [2]
COO [Inactivator 072, Methylhydroperoxide]	0.9	performed poorly		
O=C1CCO1 [BPL, β-propiolactone]			2.1	4-5
